# What was measured:
# Format in all cases: cell-based
# E. faecium ATCC 51559 = test: MIC against drug-resistant bacteria, E. faecium ATCC 51559; conditions: organism A = E. faecium ATCC 51559, vancomycin resistant strain (VRE)
# Procedure: (§1) Compounds according to this invention were screened for their in vitro activities against selected species of bacteria and fungi. The minimal inhibition concentration (MIC) of these compounds was determined using the National Committee for Clinical Laboratory Standards (NCCLS) broth microdilution assay in microtiter plates, as set forth in: (1) the guidelines of the National Committee for Clinical Laboratory Standards (NCCLS) Document M7-A4 (NCCLS, 1997); (2) the guidelines of the National Committee for Clinical Laboratory Standards (NCCLS) Document M11-A4 (NCCLS, 1997); and (3) the guidelines and reference method of the National Committee for Clinical Laboratory Standards (NCCLS) Document M27-T (NCCLS, 1995). For antifungal essays, the method recommended in Murray, PR., 1995 Manual of Clinical Microbiology (ASM Press, Washington, D.C.), was employed.
# (§2) Further, compounds (I) are effective against drug-resistant bacteria, as evidenced by the data in Table 2 below:
# (§3) ATCC 27660 and ATCC 33591 are methycillin resistant strains of S. aureus (MRSA's). ATCC 51559 is a vancomycin resistant strain of E. faecium (VRE). ATCC 12228 is a methycillin resistant strain of S. epidermis (MRSE). ATCC 51422 is a penicillin resistant strain of S. pneumoniae.
# S. aureus ATCC 27660 = test: MIC against drug-resistant bacteria, S. aureus ATCC 27660; conditions: organism B = S. aureus ATCC 27660, methycillin resistant strain (MRSA)
# Procedure: as §1, §2, §3
# S. aureus ATCC 33591 = test: MIC against drug-resistant bacteria, S. aureus ATCC 33591; conditions: organism C = S. aureus ATCC 33591, methycillin resistant strain (MRSA)
# Procedure: as §1, §2, §3
# S. epidermis ATCC 12228 = test: MIC against drug-resistant bacteria, S. epidermis ATCC 12228; conditions: organism D = S. epidermis ATCC 12228, methycillin resistant strain (MRSE)
# Procedure: as §1, §2, §3
# S. pneumoniae ATCC 51422 = test: MIC against drug-resistant bacteria, S. pneumoniae ATCC 51422; conditions: organism E = S. pneumoniae ATCC 51422, penicillin resistant strain
# Procedure: as §1, §2, §3
Structure (SMILES),Minimum Inhibitoty Concentration (MIC) (E. faecium ATCC 51559),Minimum Inhibitoty Concentration (MIC) (S. aureus ATCC 27660),Minimum Inhibitoty Concentration (MIC) (S. aureus ATCC 33591),Minimum Inhibitoty Concentration (MIC) (S. epidermis ATCC 12228),Minimum Inhibitoty Concentration (MIC) (S. pneumoniae ATCC 51422)
CCOC(=O)c1ccc2nc(-c3cc(NC(=O)c4cc(NC(=O)c5ccc(F)cc5NCCN5CCCCC5)cn4C)cn3C)[nH]c2c1 [Compound I-18],–,+++ (MIC ≦4),–,–,–
Cn1cc(NC(=O)c2ccc(F)cc2F)cc1C(=O)Nc1cc(-c2nc3ccc(C(=O)NCCN4CCOCC4)cc3[nH]2)n(C)c1 [Compound I-19],+++ (MIC ≦4),+++ (MIC ≦4),+++ (MIC ≦4),+++ (MIC ≦4),+++ (MIC ≦4)
CCN(CC)CCNC(=O)c1ccc2nc(-c3cc(NC(=O)c4cc(NC(=O)c5sc6ccccc6c5Cl)cn4C)cn3C)[nH]c2c1 [Compound I-25],–,+++ (MIC ≦4),–,–,–
Cn1cc(NC(=O)c2cc3ccccc3cn2)cc1C(=O)Nc1cc(-c2nc3ccc(C(=O)NCCN4CCSCC4)cc3[nH]2)n(C)c1 [Compound I-30],+++ (MIC ≦4),+++ (MIC ≦4),–,+++ (MIC ≦4),–
COCn1cc(NC(=O)c2ccc3nc(-c4cc(NC(=O)c5sccc5Cl)cn4C)[nH]c3c2)cc1C(=O)NCCN1CCSCC1 [Compound I-34],–,–,+++ (MIC ≦4),+++ (MIC ≦4),–
CCN(CC)CCCNC(=O)c1ccc2nc(-c3cc(NC(=O)c4cc(NC(=O)c5cc6ccccc6cn5)cn4C)cn3C)[nH]c2c1 [Compound I-37],–,+++ (MIC ≦4),+++ (MIC ≦4),–,–

# More lines, now with the values ahead:
Minimum Inhibitoty Concentration (MIC) (E. faecium ATCC 51559),Minimum Inhibitoty Concentration (MIC) (S. aureus ATCC 27660),Minimum Inhibitoty Concentration (MIC) (S. aureus ATCC 33591),Minimum Inhibitoty Concentration (MIC) (S. epidermis ATCC 12228),Minimum Inhibitoty Concentration (MIC) (S. pneumoniae ATCC 51422),Structure (SMILES)
+++ (MIC ≦4),+++ (MIC ≦4),+++ (MIC ≦4),+++ (MIC ≦4),+++ (MIC ≦4),Cn1cc(NC(=O)c2ccc(Cl)cc2F)cc1C(=O)Nc1cc(-c2nc3ccc(C(=O)NCCN4CCOCC4)cc3[nH]2)n(C)c1 [Compound I-13]
+++ (MIC ≦4),+++ (MIC ≦4),+++ (MIC ≦4),+++ (MIC ≦4),+++ (MIC ≦4),Cn1cc(NC(=O)c2ccc(Cl)cc2F)cc1C(=O)Nc1cc(-c2nc3ccc(C(=O)NCCN4CCSCC4)cc3[nH]2)n(C)c1 [Compound I-14]
+++ (MIC ≦4),+++ (MIC ≦4),+++ (MIC ≦4),+++ (MIC ≦4),+++ (MIC ≦4),Cn1cc(NC(=O)c2ccc(Cl)cc2F)cc1C(=O)Nc1cc(-c2nc3ccc(C(=O)NCCN4CCCCC4)cc3[nH]2)n(C)c1 [Compound I-15]
–,"+ (MIC from 12 to 32, inclusive)",–,–,–,CCOC(=O)c1ccc2nc(-c3cc(NC(=O)c4cc(NC(=O)c5ccc(F)cc5NCCN5CCOCC5)cn4C)cn3C)[nH]c2c1 [Compound I-16]
–,+++ (MIC ≦4),–,–,–,CCOC(=O)c1ccc2nc(-c3cc(NC(=O)c4cc(NC(=O)c5ccc(F)cc5NCCN5CCSCC5)cn4C)cn3C)[nH]c2c1 [Compound I-17]
–,+++ (MIC ≦4),–,–,–,Cn1cc(NC(=O)c2sc3ccccc3c2Cl)cc1C(=O)Nc1cc(-c2nc3ccc(C(=O)NCCN4CCCCC4)cc3[nH]2)n(C)c1 [Compound I-24]
+++ (MIC ≦4),+++ (MIC ≦4),–,+++ (MIC ≦4),–,CCN(CC)CCNC(=O)c1ccc2nc(-c3cc(NC(=O)c4cc(NC(=O)c5cc6ccccc6cn5)cn4C)cn3C)[nH]c2c1 [Compound I-27]
+++ (MIC ≦4),+++ (MIC ≦4),–,+++ (MIC ≦4),–,Cn1cc(NC(=O)c2ccc3nc(-c4cc(NC(=O)c5ccc(Cl)cc5F)cn4C)[nH]c3c2)cc1C(=O)NCCN1CCCCC1 [Compound I-28]

# Reference: patent publication US6716866B2, “Aryl-benzimidazole compounds having antiinfective activity” (GeneSoft Pharmaceuticals, Inc., priority 2001, dated 2004)
